≈ marks a conversion by molar mass, not a printed value.
What was measured:
M-HeLa [1] = test: cells; settings: Homo sapiens, 48 h, read-out: IC50, M-HeLa
HuTu 80 = test: cells; settings: Homo sapiens, HuTu80, 48 h, read-out: IC50, HuTu 80
PC3 = test: cells; format: cell-based; settings: Homo sapiens, PC-3, 48 h, read-out: IC50, PC3
[2] = test system: HuTu 80, MCF-7 and human cervical carcinoma cell lines; test: cells; format: cell-based; settings: 120 h, read-out: IC50 range over HuTu 80, MCF-7 and human cervical carcinoma lines
MRSA-1 = test: Antimicrobial serial microdilution, MRSA-1; format: cell-based, Staphylococcus aureus; settings: for MIC: read-out: Minimum Inhibitory Concentration (MIC), MRSA-1
WI38 = test: cells; format: cell-based; settings: Homo sapiens, WI-38, 48 h, read-out: IC50, WI38
MRSA-2 = test: Antimicrobial serial microdilution, MRSA-2; format: cell-based, Staphylococcus aureus; settings: for MIC: read-out: Minimum Inhibitory Concentration (MIC), MRSA-2
PANC-1 = test: cells; settings: Homo sapiens, PANC-1, 48 h, read-out: IC50, PANC-1
M-HeLa [3] = test system: M-HeLa
[4] = test system: Staphylococcus aureus ATCC 6538P FDA 209P (Sa); test: Antimicrobial serial microdilution, Sa; format: cell-based; settings: for MIC: read-out: Minimum Inhibitory Concentration (MIC), Sa
A549 = test: cells; settings: Homo sapiens, A549, 48 h, read-out: IC50, A549
M-HeLa cells = test: Intracellular ROS, CellROX Deep Red flow cytometry; format: cell-based, human; settings: concentration equal to IC50 cytotoxicity on M-HeLa, 48 h; result in words
Description: Apoptosis can be induced in various ways, including an increase in the production of reactive oxygen species (ROS) in the cell, with subsequent oxidative stress and destruction of membrane lipids, proteins and nucleic acids. Thus, chemical compounds that disturb the redox balance and lead to the production and accumulation of ROS are potential agents for targeting the transformed cells. To understand the possible synergy between the different components of these hybrid agents, we compared the ROS production for compounds 4c, 5d, starting phenols 2c, 2d and furoxan 3 at the concentration of IC50 cytotoxicity on M-HeLa cells (Figure 4). A significant increase in CellROX® Deep Red fluorescence intensity indicates an increase in ROS production.
Detection of Intracellular ROS. […] ROS generation was investigated using flow cytometry assay and CellROX® Deep Red flow cytometry kit. For this M-HeLa cells were harvested at 2000 rpm for 5 min and then washed twice with ice-cold PBS, followed by resuspension in 0.1 mL of medium without FBS, to which was added 0.2 μL of CellROX® Deep Red and incubated at 37 °C for 30 min. After three times washing the cells and suspending them in PBS, the production of ROS in the cells was immediately monitored using flow cytometer (Guava easy Cyte, Merck, Rahway, NJ, USA).

A375 = test: cells; format: cell-based; settings: Homo sapiens, A-375, 48 h, read-out: IC50, A375
MCF-7 = test: cells; format: cell-based, human; settings: for IC50: Homo sapiens, MCF7, 48 h, read-out: IC50, MCF-7
T98G = test: cells; format: cell-based; settings: Homo sapiens, 48 h, read-out: IC50, T98G
[5] = test system: Bacillus cereus ATCC 10702 (Bc); test: Antimicrobial serial microdilution, Bc; format: cell-based; settings: for MIC: ATCC10702, read-out: Minimum Inhibitory Concentration (MIC), Bc
Chang Liver = test: cells; settings: Homo sapiens, 48 h, read-out: IC50, Chang Liver
[6] = test system: Enterococcus faecalis ATCC 29212 (Ef); test: Antimicrobial serial microdilution, Ef; format: cell-based; settings: for MIC: Enterococcus faecalis, ATCC29212, read-out: Minimum Inhibitory Concentration (MIC), Ef
[7] = 500 ng/mL spike, sampled 5, 15, 30 min, 1 and 2 hours; result in words

| SMILES | IC50 (M-HeLa [1]) | IC50 (HuTu 80) | IC50 (PC3) | IC50 [2] | IC50 (WI38) | IC50 (PANC-1) | Times more active than the starting SHP, M-HeLa (M-HeLa [3]) | IC50 (A549) | IC50 (A375) | Times more active than the starting SHP, MCF-7 (MCF-7) | IC50 (MCF-7) | IC50 (T98G) | IC50 (Chang Liver) | MIC (MRSA-1; Staphylococcus aureus, MRSA) | MIC (MRSA-2; Staphylococcus aureus, MRSA) | MIC ([4]; Staphylococcus aureus) | MIC ([5]; Bacillus cereus) | Minimum bactericidal and fungicidal concentrations (MBC), (MFC), Ef [6] | MIC [6] | other results |
| --- | --- | --- | --- | --- | --- | --- | --- | --- | --- | --- | --- | --- | --- | --- | --- | --- | --- | --- | --- | --- |
| CC(C)OP(=O)(OC(C)C)C(c1cc(C(C)(C)C)c(O)c(C(C)(C)C)c1)c1ccc(Nc2c([N+](=O)[O-])cc([N+](=O)[O-])c3no[n+]([O-])c23)nc1N (stereo not drawn) [4c, 7-((6-amino-5-((3,5-di-tert-butyl-4-hydroxyphenyl)(diisopropoxyphosphoryl)methyl)pyridin-2-yl)amino)-4,6-dinitrobenzo[c][1,2,5]oxadiazole 1-oxide] | 0.9 ± 0.07 µM | 0.9 ± 0.07 µM | 1.2 ± 1 µM | 0.9 to 5.9 µM | 2 ± 0.1 µM | 11.2 ± 0.9 µM | 40 times | 0.9 ± 0.08 µM | 2.9 ± 0.2 µM | 20 times | 1.1 ± 0.1 µM | 2.2 ± 0.1 µM | 2.1 ± 0.7 µM |  |  |  |  |  |  | Minimum Inhibitory Concentration (MIC), MRSA-1 (MRSA-1; serial microdilution, strain resistant to β-lactams and fluoroquinolones): -; Minimum Inhibitory Concentration (MIC), MRSA-2 (MRSA-2; serial microdilution, strain resistant only to β-lactams): -; Minimum Inhibitory Concentration (MIC), Sa [4]: -; ROS production (CellROX Deep Red fluorescence intensity) (M-HeLa cells): ROS production significantly exceeds that for the original phenol 2c and furoxan 3; Minimum Inhibitory Concentration (MIC), Bc [5]: -; Minimum Inhibitory Concentration (MIC), Ef [6]: - |
| CC(C)OP(=O)(OC(C)C)C(c1cc(C(C)(C)C)c(O)c(C(C)(C)C)c1)c1ccc(Nc2c([N+](=O)[O-])cc([N+](=O)[O-])c3no[n+]([O-])c23)nc1Nc1c([N+](=O)[O-])cc([N+](=O)[O-])c2no[n+]([O-])c12 (stereo not drawn) [5c, 7,7’-((3-((3,5-di-tert-butyl-4-hydroxyphenyl)(diisopropoxyphosphoryl)methyl)pyridine-2,6-diyl)bis(azanediyl))bis(4,6-dinitrobenzo[c][1,2,5]oxadiazole 1-oxide)] | 2.4 ± 0.2 µM | 3.9 ± 0.3 µM | 6.8 ± 0.5 µM |  | 5 ± 0.4 µM | 5 ± 0.3 µM |  | 7.7 ± 0.6 µM | 9 ± 0.8 µM |  | 4.5 ± 0.4 µM | 7.7 ± 0.6 µM | 4.1 ± 0.8 µM | 62.5 ± 5.5 µg/mL (≈ 66.5 µM) | 250 ± 20 µg/mL (≈ 266 µM) | 31.3 ± 2.3 µg/mL (≈ 33.3 µM) | 31.3 ± 2.5 µg/mL (≈ 33.3 µM) | - | 62.5 ± 5.3 µg/mL (≈ 66.5 µM) | Minimum bactericidal and fungicidal concentrations (MBC), (MFC), MRSA-1 (MRSA-1): -; Minimum bactericidal and fungicidal concentrations (MBC), (MFC), MRSA-2 (MRSA-2): -; Minimum bactericidal and fungicidal concentrations (MBC), (MFC), Sa [4]: -; MBC ([5]; Bacillus cereus, ATCC10702, read-out: Minimum bactericidal and fungicidal concentrations (MBC), (MFC), Bc): 250 ± 20 µg/mL (≈ 266 µM) |
| CC(C)(C)c1cc(C(c2ccc(Nc3c([N+](=O)[O-])cc([N+](=O)[O-])c4no[n+]([O-])c34)nc2Nc2c([N+](=O)[O-])cc([N+](=O)[O-])c3no[n+]([O-])c23)P(=O)(Oc2ccccc2)Oc2ccccc2)cc(C(C)(C)C)c1O (stereo not drawn) [5d, 7,7’-((3-((3,5-di-tert-butyl-4-hydroxyphenyl)(diphenoxyphosphoryl)methyl)pyridine-2,6-diyl)bis(azanediyl))bis(4,6-dinitrobenzo[c][1,2,5]oxadiazole 1-oxide)] | 2 µM | 4.9 ± 0.3 µM | 5.9 ± 0.4 µM | 0.9 to 5.9 µM | 8.4 ± 0.7 µM | 2.8 µM | 3.7 times | 5.2 ± 0.4 µM | 5.9 ± 0.5 µM | 7.6 times | 2.1 µM | 4.8 ± 0.4 µM | 9.2 ± 1.9 µM | 62.5 ± 5.3 µg/mL (≈ 62 µM) | 250 ± 19 µg/mL (≈ 248 µM) | 15.6 ± 1.2 µg/mL (≈ 15.5 µM) | 62.5 ± 5.4 µg/mL (≈ 62 µM) | - | 62.5 ± 5.2 µg/mL (≈ 62 µM) | Biostability in whole mice blood (peak area relative to 5 min value) [7]: metabolized, but its rate is quite low; MBC (MRSA-1; Staphylococcus aureus, MRSA, read-out: Minimum bactericidal and fungicidal concentrations (MBC), (MFC), MRSA-1): 250 ± 20 µg/mL (≈ 248 µM); MBC (MRSA-2; Staphylococcus aureus, MRSA, read-out: Minimum bactericidal and fungicidal concentrations (MBC), (MFC), MRSA-2): 250 ± 19 µg/mL (≈ 248 µM); MBC ([4]; Staphylococcus aureus, read-out: Minimum bactericidal and fungicidal concentrations (MBC), (MFC), Sa): 125 ± 10 µg/mL (≈ 124 µM); Minimum bactericidal and fungicidal concentrations (MBC), (MFC), Bc [5]: - |

Reference: article PMC10145285, “Diverse Biological Activity of Benzofuroxan/Sterically Hindered Phenols Hybrids” (Pharmaceuticals, 2023)
